# Test results reported in ChEMBL document CHEMBL3739399, “Discovery of Indazole Derivatives as a Novel Class of Bacterial Gyrase B Inhibitors” (ACS Med Chem Lett, 2015).
# How the values were obtained:
# Enterococcus faecalis = assay: Antibacterial activity against Enterococcus faecalis for 18 to 20 hrs by broth microdilution method; assay type: functional
# Streptococcus pneumoniae [1] = assay: Antibacterial activity against Streptococcus pneumoniae for 18 to 24 hrs by broth microdilution method; assay type: functional
# Enterococcus faecium = assay: Antibacterial activity against Enterococcus faecium for 18 to 20 hrs by broth microdilution method; assay type: functional
# Staphylococcus aureus [2] = assay: Antibacterial activity against methicillin and ciprofloxacin-resistant Staphylococcus aureus 1721 for 18 to 20 hrs by broth microdilution method; assay type: functional
# Staphylococcus aureus [3] = assay: Antibacterial activity against methicillin-sensitive Staphylococcus aureus 42 for 18 to 20 hrs by broth microdilution method; assay type: functional
# DNA gyrase subunit B = DNA gyrase subunit B (Staphylococcus aureus, UniProt P0A0K8); assay: Inhibition of Staphylococcus aureus Gyrase B ATPase activity by fluorescence analysis
# DNA gyrase subunit B, sequence (P0A0K8 whole entry): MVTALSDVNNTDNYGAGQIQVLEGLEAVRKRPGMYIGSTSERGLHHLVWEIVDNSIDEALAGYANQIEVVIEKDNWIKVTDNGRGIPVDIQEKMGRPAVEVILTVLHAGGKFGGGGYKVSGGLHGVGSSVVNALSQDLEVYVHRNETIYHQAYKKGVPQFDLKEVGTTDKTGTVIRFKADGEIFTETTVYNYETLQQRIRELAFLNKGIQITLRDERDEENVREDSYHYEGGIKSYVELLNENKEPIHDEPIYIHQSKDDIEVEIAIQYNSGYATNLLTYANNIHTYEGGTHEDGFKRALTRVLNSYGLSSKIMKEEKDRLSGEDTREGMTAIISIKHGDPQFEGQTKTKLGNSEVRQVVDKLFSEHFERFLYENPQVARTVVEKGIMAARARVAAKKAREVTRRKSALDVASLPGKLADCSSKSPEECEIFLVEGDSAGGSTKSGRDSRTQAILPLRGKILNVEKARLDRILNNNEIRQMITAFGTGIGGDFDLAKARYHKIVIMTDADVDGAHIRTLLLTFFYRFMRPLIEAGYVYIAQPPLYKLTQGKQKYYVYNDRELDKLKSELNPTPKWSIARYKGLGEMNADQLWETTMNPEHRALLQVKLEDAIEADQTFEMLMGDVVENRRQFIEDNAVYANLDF
# Staphylococcus aureus [4] = assay: Antibacterial activity against methicillin-resistant Staphylococcus aureus 1118 for 18 to 20 hrs by broth microdilution method; assay type: functional
# [5] = Inhibition of Staphylococcus aureus topoisomerase 4 by fluorescence analysis
# Streptococcus pneumoniae [6] = assay: Antibacterial activity against Streptococcus pneumoniae 402 infected in sc dosed mouse assessed as reduction in 3 log CFU in lung compound administered as BID for 1 day measured 24 hrs after last dose; assay type: functional
# Streptococcus pneumoniae [7] = assay: Antibacterial activity against Streptococcus pneumoniae 402 infected in sc dosed mouse assessed as reduction in 2 log CFU in lung compound administered as BID for 1 day measured 24 hrs after last dose; assay type: functional
SMILES,MIC (Enterococcus faecalis) [µg/mL],MIC (Streptococcus pneumoniae [1]) [µg/mL],MIC (Enterococcus faecium) [µg/mL],MIC (Staphylococcus aureus [2]) [µg/mL],MIC (Staphylococcus aureus [3]) [µg/mL],IC50 (DNA gyrase subunit B) [nM],MIC (Staphylococcus aureus [4]) [µg/mL],IC50 [5] [nM],ED (Streptococcus pneumoniae [6]) [mg/kg],ED (Streptococcus pneumoniae [7]) [mg/kg]
CCCc1cccc2c(-c3cnc(-c4ccnc(C(=O)O)c4)s3)n[nH]c12,> 8,1,> 8,> 8,> 8,11,> 8,> 1000,–,–
CCCc1c(O)ccc2c(-c3cnc(-c4cnc(C(=O)O)c(O)c4)s3)n[nH]c12,0.125,0.25,0.25,2,1,13,4,–,–,–
CCCc1cccc2c(-c3cnc(-c4ccc(C(=O)NCCN5CCCCC5)nc4)s3)n[nH]c12,> 8,> 8,> 8,2,2,20,1,> 2000,–,–
CCCc1cccc2c(-c3cnc(-c4ccc(CO)nc4)s3)n[nH]c12,> 8,8,> 8,0.06,0.06,15,0.06,> 4000,–,–
CCCc1cccc2c(-c3cnc(-c4ccc(COP(=O)(O)O)nc4)s3)n[nH]c12,> 8,2,2,0.5,0.25,9,0.25,147,–,–
CCCc1cccc2c(-c3cnc(-c4cnc(C(=O)O)c(O)c4)s3)n[nH]c12,0.125,0.5,0.125,0.125,0.125,11,0.06,60,–,–
CCCc1cccc2c(-c3cncs3)n[nH]c12,> 32,> 32,> 32,> 32,> 32,6500,> 32,–,–,–
CCOc1cccc2c(-c3cnc(-c4ccc(C(=O)O)c(F)c4)s3)n[nH]c12,1,1,2,1,0.5,< 8,0.5,–,–,–
CCCOc1nccc2c(-c3cnc(-c4ccc(C(=O)O)nc4)s3)n[nH]c12,2,0.06,2,8,4,< 8,4,–,–,–
CCCc1cccc2c(-c3cnc(-c4ccc(C(=O)OC)nc4)s3)n[nH]c12,> 8,0.125,> 8,2,0.5,29,1,> 10000,–,–
CCCOc1nccc2c(-c3cnc(-c4ccc(CO)nc4)s3)n[nH]c12,0.25,0.25,1,0.125,0.125,< 8,0.25,–,–,–
CCCc1cccc2c(-c3cnc(-c4cnc(C(=O)OC)c(O)c4)s3)n[nH]c12,1,1,2,2,1,< 8,1,68,–,–
CCCc1cccc2c(-c3cnc(-c4cnc(C(=O)O)c(F)c4)s3)n[nH]c12,0.25,0.25,0.25,0.25,0.125,< 8,0.125,24,–,–
CCOc1nccc2c(-c3cnc(-c4cnc(C(=O)O)cc4C)s3)n[nH]c12,0.25,0.125,0.5,0.5,0.25,< 8,0.5,–,–,–
CCCc1cccc2c(-c3cnc(-c4cnc(C(=O)O)c(OC)c4)s3)n[nH]c12,2,1,4,> 8,1,14,1,115,–,–
C=CCc1cccc2c(-c3cnc(-c4ccc(C(=O)O)nc4)s3)n[nH]c12,0.125,0.25,0.125,0.06,0.03,9,0.03,–,–,–
CCCc1cccc2c(-c3cnc(-c4ccc(CC(=O)O)nc4)s3)n[nH]c12,0.5,0.5,4,0.25,0.25,25,0.25,434,–,–
CCCc1cccc2c(-c3cnc(-c4cnc(C(=O)O)cc4C)s3)n[nH]c12,0.06,0.125,0.013,0.03,0.02,12,0.02,60,–,–
CCCc1cccc2c(-c3cnc(-c4ccc(C(=O)O)c(=O)[nH]4)s3)n[nH]c12,> 8,> 8,> 8,> 8,> 8,168,> 8,–,–,–
CCCOc1nccc2c(-c3cnc(-c4cnc(C(=O)O)cc4C)s3)n[nH]c12,4,0.125,8,8,8,52,8,–,–,–
CCCc1c(O)ccc2c(-c3cnc(-c4cnc(C(=O)O)cc4C)s3)n[nH]c12,0.06,0.06,0.25,0.125,0.125,8,0.125,–,–,–
O=C(O)c1ccc(-c2ncc(-c3n[nH]c4c(CC5CC5)cccc34)s2)cn1,0.125,0.5,4,0.1,0.05,13,0.05,–,–,–
CCCOc1nccc2c(-c3cnc(-c4ccc(COP(=O)([O-])[O-])nc4)s3)n[nH]c12.[Na+].[Na+],> 8,1,8,> 8,8,< 8,8,–,–,–
CCCc1c(O)ccc2c(-c3cnc(-c4ccc(C(=O)O)c(F)c4)s3)n[nH]c12,0.02,0.06,0.02,0.25,0.125,11,0.25,–,–,–
CCCc1cccc2c(-c3cnc(-c4ccc(C(=O)O)cn4)s3)n[nH]c12,8,8,4,> 8,8,49,> 8,9900,–,–
COc1c(N2C[C@@H]3CCCN[C@@H]3C2)c(F)cc2c(=O)c(C(=O)O)cn(C3CC3)c12 [MOXIFLOXACIN],–,0.06,–,–,–,–,–,–,50.8,28.6
